Our source for the IC50 values is patent US5521156A, “Cyclic neurokinin A antagonists” (priority 1994, dated 1996).

For assay [1], the target named is T1, human jejunal NK-2 receptor (Homo sapiens, UniProt P21452).
T1 construct: expressed in transfected cells; host or cells: HSKR-1 (mouse 3T3 fibroblasts)
T1 sequence (P21452 1-398): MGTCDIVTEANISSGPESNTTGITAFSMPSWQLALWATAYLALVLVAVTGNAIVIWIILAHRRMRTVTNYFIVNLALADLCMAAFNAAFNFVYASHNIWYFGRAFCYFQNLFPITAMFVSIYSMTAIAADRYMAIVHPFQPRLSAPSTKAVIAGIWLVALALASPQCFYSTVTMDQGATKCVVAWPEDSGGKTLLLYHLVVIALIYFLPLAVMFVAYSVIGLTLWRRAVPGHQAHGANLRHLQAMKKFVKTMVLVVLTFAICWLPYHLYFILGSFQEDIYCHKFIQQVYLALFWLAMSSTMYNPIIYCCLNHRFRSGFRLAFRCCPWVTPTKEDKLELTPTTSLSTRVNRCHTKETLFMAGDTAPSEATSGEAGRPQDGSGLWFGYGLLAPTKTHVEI
Description: NK-2 receptor binding (125I-neurokinin A) in HSKR-1 cell membranes. As to conditions: HSKR-1 cells (mouse 3T3 fibroblasts expressing human jejunal NK-2 receptor); 0.1 nM 125I-iodohistidyl-1-neurokinin A; mean ± S.E.M. As for the experimental part: (§1) Receptor binding assays were performed in crude tissue membranes. The NK-1 receptor binding affinity of proposed tachykinin antagonists was evaluated in guinea pig lungs (Keystone Biologicals, Cleveland, OH, kept frozen at -80° C. until use). Affinity for the NK-2 receptor was evaluated in HSKR-1 cells which are mouse 3T3 fibroblasts expressing the human jejunal NK-2 receptor. Tissues or cells were homogenized with a Polytron in 15 volumes of 50 mM Tris-HCl buffer (pH 7.4, 4° C.) containing 120 mM NaCl and 5 mM KCl and centrifuged at 48,000×g for 12 min. at 4° C. The pellet was resuspended in 15 volumes of 50 mM Tris-HCl buffer containing 10 mM EDTA and 300 mM KCl then set on ice for 30 min. The suspension was cetrifuged as above and the pellet washed by resuspension and cetrifugation two additional times in 50 mM Tris-HCl buffer (pH 7.4, 4° C.). The final pellet was resuspended in a concentration of 20 mg/ml in incubation buffer then kept at room temperature for at least 15 min prior to use. Receptor binding was initiated by addition of 250 μl membrane preparation (final protein concentration; lungs=286 μg/tube, HSKR-1 cells=100 μg/tube) in duplicate to 0.1 nM of the following radioligands: for NK-1 receptor assays, ^125 I-Bolton-Hunter Lys-3 labeled substance P (New England Nuclear, specific activity, 2200 Ci/mmol); for NK-2 receptor assays, ^125 iodohistidyl-1-neurokinin A (Amersham, specific activity, 2000 Ci/mmol) in a final volume of 500 μl of buffer containing 50 mM Tris-HCl (pH 7.4 at room temperature), 0.1% bovine serum albumin, 2 mM MnCl2, 40 μg/ml bacitracin, 4 μg/ml leupeptin and chymostatin, 1 μM thiorphan and various doses of the tachykinin antagonists. Incubations were performed at room temperature for 90 min (NK-1 receptor assays) or 2 hr (NK-2 receptor assays); binding was terminated by addition of 50 mM Tris-HCl buffer (pH 7.4, 4° C.) and filtration under vacuum through GF/B filters presoaked with 0.1% polyethyleneimine (NK-1 receptor assays) or 0.5% bovine serum albumin (NK-2 receptor assays). Nonspecific binding was defined as binding in the presence of 1 μM substance P (NK-1 receptor assays) or neurokinin A (NK-2 receptor assays) (Peptides International, Inc., Louisville, Ky.). Specific binding was calculated by subtracting nonspecific binding from total binding and corresponded to 70-90% of total binding. Data were analyzed and IC50 values generated by nonlinear regression using an iterative curve fitting program (GraphPAD Inplot, San Diego, Calif.). Protein was determined by the method of Lowry.

The target of a further assay is T2, NK-1 receptor (Cavia porcellus, UniProt P30547).
T2 construct: tissue Keystone Biologicals, Cleveland, OH; host or cells: guinea pig lung
T2 sequence (P30547 whole entry): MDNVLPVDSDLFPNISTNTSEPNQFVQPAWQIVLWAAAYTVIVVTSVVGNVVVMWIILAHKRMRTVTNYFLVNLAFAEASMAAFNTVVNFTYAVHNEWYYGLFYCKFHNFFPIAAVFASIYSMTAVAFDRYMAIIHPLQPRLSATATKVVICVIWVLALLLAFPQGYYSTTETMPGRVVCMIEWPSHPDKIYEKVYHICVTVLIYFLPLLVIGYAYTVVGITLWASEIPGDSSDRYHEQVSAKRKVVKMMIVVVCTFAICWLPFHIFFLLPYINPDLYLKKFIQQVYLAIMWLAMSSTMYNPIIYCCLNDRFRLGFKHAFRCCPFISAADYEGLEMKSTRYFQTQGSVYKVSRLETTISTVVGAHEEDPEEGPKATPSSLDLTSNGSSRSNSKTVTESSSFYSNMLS
Put plainly: NK-1 receptor binding (125I-Bolton-Hunter substance P) in guinea pig lung membranes. Conditions: 0.1 nM 125I-Bolton-Hunter Lys-3 substance P, mean ± S.E.M. As for the experimental part:
as §1

Where a SMILES comes first, the peptide text is derived from it. [ ]: non-standard residue; d: D form.

`CC(C)C[C@@H]1NC(=O)[C@@H](Cc2c[nH]c3ccccc23)NC(=O)[C@H](Cc2ccc(O)cc2)NC(=O)CNC(=O)[C@H](Cc2c[nH]c3ccccc23)NC(=O)[C@H](CCCNC(=N)N)NC1=O` [cyclo[Tyr--trp--Leu--Arg--Trp--Gly], cyclo[Tyr-trp-Leu-Arg-Trp-Gly]] (cyclo(GY[dW]LRW)): the IC50 (in general, the midpoint of a concentration-inhibition curve) in assay [1] is 6.79 ± 0.69 nM; at NK-1 receptor, 6190 ± 277 nM.
